According to PubChem BioAssay (NCI):
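Tested at 5 concentrations; 48 h exposure; 96-well plates; endpoints linearly interpolated, else capped at highest concentration. TGI marks complete inhibition of growth.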

Key:
Test in all cases: DTP human tumour cell line panel, 48 h
[1] = tested on: 786-0 renal
[2] = tested on: A498 renal
[3] = tested on: A549 NSCLC
[4] = tested on: ACHN renal
[5] = tested on: BT-549 breast
[6] = tested on: CAKI-1 renal
[7] = tested on: CCRF-CEM leukemia
[8] = tested on: COLO 205 colon
[9] = tested on: DU-145 prostate
[10] = tested on: EKVX NSCLC
[11] = tested on: HCC-2998 colon
[12] = tested on: HCT-116 colon
[13] = tested on: HCT-15 colon
[14] = tested on: HL-60(TB) leukemia
[15] = tested on: HOP-62 NSCLC
[16] = tested on: HOP-92 NSCLC
[17] = tested on: HT29 colon
[18] = tested on: IGROV1 ovarian
[19] = tested on: K-562 leukemia
[20] = tested on: KM12 colon
[21] = tested on: LOX IMVI melanoma
[22] = tested on: M14 melanoma
[23] = tested on: MCF7 breast
[24] = tested on: MDA-MB-231 breast
[25] = tested on: MDA-MB-435
[26] = tested on: MDA-N
[27] = tested on: MOLT-4 leukemia
[28] = tested on: NCI-H226 lung
[29] = tested on: NCI-H23 lung
[30] = tested on: NCI-H460 lung
[31] = tested on: NCI-H522 lung
[32] = tested on: NCI/ADR-RES ovarian
[33] = tested on: OVCAR-3 ovarian
[34] = tested on: OVCAR-4 ovarian
[35] = tested on: OVCAR-5 ovarian
[36] = tested on: OVCAR-8 ovarian
[37] = tested on: PC-3 prostate
[38] = tested on: RPMI-8226 leukemia
[39] = tested on: RXF 393 renal
[40] = tested on: SF-268 CNS
[41] = tested on: SF-295 CNS
[42] = tested on: SK-MEL-2 melanoma
[43] = tested on: SK-MEL-28 melanoma
[44] = tested on: SK-MEL-5 melanoma
[45] = tested on: SK-OV-3 ovarian
[46] = tested on: SN12C renal
[47] = tested on: SNB-19 CNS
[48] = tested on: SNB-75 CNS
[49] = tested on: SR leukemia
[50] = tested on: SW-620 colon
[51] = tested on: T-47D breast
[52] = tested on: TK-10 renal
[53] = tested on: U251 CNS
[54] = tested on: UACC-257 melanoma
[55] = tested on: UACC-62 melanoma
[56] = tested on: UO-31 renal
[57] = tested on: HS 578T breast
[58] = tested on: MALME-3M melanoma
[59] = tested on: SF-539 CNS

**Q.** For `O=C(c1ccccc1)c1ccc2nc(-c3c(Cl)c(Cl)c(Cl)c(Cl)c3C(=O)Nc3ccco3)[nH]c2c1`, which TGI [1] is on record?
**A.** > 100 µM

**Q.** And the TGI [2]?
**A.** 92.2 µM

**Q.** What about the TGI [3] of the same compound?
**A.** > 100 µM

**Q.** And the TGI [4]?
**A.** > 100 µM

**Q.** What about the TGI [5] of the same compound?
**A.** 74 µM

**Q.** What about the TGI [6] of the same compound?
**A.** > 100 µM

**Q.** What about the TGI [7] of the same compound?
**A.** > 100 µM

**Q.** What about the TGI [8] of the same compound?
**A.** > 100 µM

**Q.** What about the TGI [9] of the same compound?
**A.** > 100 µM

**Q.** What about the TGI [10] of the same compound?
**A.** > 100 µM

**Q.** And the TGI [11]?
**A.** 53.1 µM

**Q.** And the TGI [12]?
**A.** > 100 µM

**Q.** And the TGI [13]?
**A.** > 100 µM

**Q.** What about the TGI [14] of the same compound?
**A.** 98.3 µM

**Q.** What about the TGI [15] of the same compound?
**A.** > 100 µM

**Q.** And the TGI [16]?
**A.** > 100 µM

**Q.** And the TGI [17]?
**A.** > 100 µM

**Q.** And the TGI [18]?
**A.** > 100 µM

**Q.** What about the TGI [19] of the same compound?
**A.** > 100 µM

**Q.** What about the TGI [20] of the same compound?
**A.** > 100 µM

**Q.** And the TGI [21]?
**A.** > 100 µM

**Q.** And the TGI [22]?
**A.** > 100 µM

**Q.** And the TGI [23]?
**A.** > 100 µM

**Q.** What about the TGI [24] of the same compound?
**A.** > 100 µM

**Q.** And the TGI [25]?
**A.** 42.7 µM

**Q.** And the TGI [26]?
**A.** 41 µM

**Q.** What about the TGI [27] of the same compound?
**A.** > 100 µM

**Q.** What about the TGI [28] of the same compound?
**A.** > 100 µM

**Q.** And the TGI [29]?
**A.** > 100 µM

**Q.** And the TGI [30]?
**A.** > 100 µM

**Q.** What about the TGI [31] of the same compound?
**A.** 81.4 µM

**Q.** And the TGI [32]?
**A.** 62.4 µM

**Q.** And the TGI [33]?
**A.** > 100 µM

**Q.** What about the TGI [34] of the same compound?
**A.** > 100 µM

**Q.** What about the TGI [35] of the same compound?
**A.** > 100 µM

**Q.** What about the TGI [36] of the same compound?
**A.** > 100 µM

**Q.** And the TGI [37]?
**A.** > 100 µM

**Q.** And the TGI [38]?
**A.** > 100 µM

**Q.** What about the TGI [39] of the same compound?
**A.** > 100 µM

**Q.** What about the TGI [40] of the same compound?
**A.** > 100 µM

**Q.** What about the TGI [41] of the same compound?
**A.** > 100 µM

**Q.** And the TGI [42]?
**A.** 80.4 µM

**Q.** What about the TGI [43] of the same compound?
**A.** > 100 µM

**Q.** What about the TGI [44] of the same compound?
**A.** > 100 µM

**Q.** And the TGI [45]?
**A.** > 100 µM

**Q.** And the TGI [46]?
**A.** > 100 µM

**Q.** And the TGI [47]?
**A.** > 100 µM

**Q.** And the TGI [48]?
**A.** > 100 µM

**Q.** And the TGI [49]?
**A.** 58.8 µM

**Q.** What about the TGI [50] of the same compound?
**A.** > 100 µM

**Q.** And the TGI [51]?
**A.** > 100 µM

**Q.** What about the TGI [52] of the same compound?
**A.** > 100 µM

**Q.** What about the TGI [53] of the same compound?
**A.** > 100 µM

**Q.** What about the TGI [54] of the same compound?
**A.** > 100 µM

**Q.** What about the TGI [55] of the same compound?
**A.** > 100 µM

**Q.** What about the TGI [56] of the same compound?
**A.** > 100 µM

**Q.** How did the TGI [1] turn out when `Clc1ccc(Cc2nc3ccccc3nc2-c2cccc(Cl)c2)cc1` was run?
**A.** 3.63 µM

**Q.** What about the TGI [3] of the same compound?
**A.** 32.8 µM

**Q.** And the TGI [4]?
**A.** 3.45 µM

**Q.** And the TGI [5]?
**A.** 16.7 µM

**Q.** What about the TGI [6] of the same compound?
**A.** 8.51 µM

**Q.** And the TGI [7]?
**A.** 0.174 µM

**Q.** What about the TGI [8] of the same compound?
**A.** 7.88 µM

**Q.** And the TGI [9]?
**A.** 40.6 µM

**Q.** What about the TGI [10] of the same compound?
**A.** 31.9 µM

**Q.** And the TGI [11]?
**A.** 3.65 µM

**Q.** And the TGI [12]?
**A.** 3.29 µM

**Q.** What about the TGI [13] of the same compound?
**A.** 3.46 µM

**Q.** What about the TGI [14] of the same compound?
**A.** 6.29 µM

**Q.** What about the TGI [15] of the same compound?
**A.** 38.1 µM

**Q.** What about the TGI [16] of the same compound?
**A.** 5.14 µM

**Q.** And the TGI [57]?
**A.** 12.4 µM

**Q.** And the TGI [17]?
**A.** 6 µM

**Q.** And the TGI [18]?
**A.** 3.66 µM

**Q.** And the TGI [19]?
**A.** 5.79 µM

**Q.** What about the TGI [20] of the same compound?
**A.** 16.5 µM

**Q.** And the TGI [21]?
**A.** 3.58 µM

**Q.** What about the TGI [22] of the same compound?
**A.** 5.06 µM

**Q.** What about the TGI [58] of the same compound?
**A.** 8.24 µM

**Q.** What about the TGI [23] of the same compound?
**A.** 13 µM

**Q.** And the TGI [24]?
**A.** 10.4 µM

**Q.** What about the TGI [25] of the same compound?
**A.** 4.09 µM

**Q.** What about the TGI [26] of the same compound?
**A.** 5.64 µM

**Q.** And the TGI [27]?
**A.** 6.82 µM

**Q.** What about the TGI [28] of the same compound?
**A.** 38.4 µM

**Q.** And the TGI [29]?
**A.** 27 µM

**Q.** What about the TGI [30] of the same compound?
**A.** 37.8 µM

**Q.** What about the TGI [31] of the same compound?
**A.** 3.41 µM

**Q.** What about the TGI [32] of the same compound?
**A.** 8.96 µM

**Q.** What about the TGI [33] of the same compound?
**A.** 17.4 µM

**Q.** And the TGI [34]?
**A.** 3.24 µM

**Q.** What about the TGI [35] of the same compound?
**A.** 21.2 µM

**Q.** And the TGI [36]?
**A.** 14.2 µM

**Q.** And the TGI [37]?
**A.** 8.18 µM

**Q.** And the TGI [38]?
**A.** 2.14 µM

**Q.** And the TGI [39]?
**A.** 4.66 µM

**Q.** What about the TGI [40] of the same compound?
**A.** 44.4 µM

**Q.** What about the TGI [41] of the same compound?
**A.** 32.6 µM

**Q.** What about the TGI [59] of the same compound?
**A.** 4.92 µM

**Q.** And the TGI [42]?
**A.** 8.11 µM

**Q.** And the TGI [44]?
**A.** 18.1 µM

**Q.** And the TGI [45]?
**A.** 31.8 µM

**Q.** What about the TGI [46] of the same compound?
**A.** 8.63 µM

**Q.** What about the TGI [47] of the same compound?
**A.** 3.85 µM

**Q.** And the TGI [50]?
**A.** 3.71 µM

**Q.** What about the TGI [51] of the same compound?
**A.** > 100 µM

**Q.** What about the TGI [52] of the same compound?
**A.** 25.9 µM

**Q.** And the TGI [53]?
**A.** 16.7 µM

**Q.** And the TGI [54]?
**A.** 39.3 µM

**Q.** What about the TGI [55] of the same compound?
**A.** 3.46 µM

**Q.** What about the TGI [56] of the same compound?
**A.** 3.32 µM
